Experimental data published in publication PMC4976878 (PLoS ONE, 2016).
pIC50: −log10 of the molar value.

Assays:
[1] = biological target: T1, BmMetRS (Brucella melitensis methionyl-tRNA-synthetase) (Brucella abortus, UniProt Q2YQ76); test: biochemical
T1 construct: gene metG

[2] = biological target: T2, human mitochondrial MetRS (Homo sapiens, UniProt Q96GW9); test: enzyme inhibition, assay not given; assay type: biochemical
T2 construct: gene MARS2
T2 sequence (Q96GW9 30-593): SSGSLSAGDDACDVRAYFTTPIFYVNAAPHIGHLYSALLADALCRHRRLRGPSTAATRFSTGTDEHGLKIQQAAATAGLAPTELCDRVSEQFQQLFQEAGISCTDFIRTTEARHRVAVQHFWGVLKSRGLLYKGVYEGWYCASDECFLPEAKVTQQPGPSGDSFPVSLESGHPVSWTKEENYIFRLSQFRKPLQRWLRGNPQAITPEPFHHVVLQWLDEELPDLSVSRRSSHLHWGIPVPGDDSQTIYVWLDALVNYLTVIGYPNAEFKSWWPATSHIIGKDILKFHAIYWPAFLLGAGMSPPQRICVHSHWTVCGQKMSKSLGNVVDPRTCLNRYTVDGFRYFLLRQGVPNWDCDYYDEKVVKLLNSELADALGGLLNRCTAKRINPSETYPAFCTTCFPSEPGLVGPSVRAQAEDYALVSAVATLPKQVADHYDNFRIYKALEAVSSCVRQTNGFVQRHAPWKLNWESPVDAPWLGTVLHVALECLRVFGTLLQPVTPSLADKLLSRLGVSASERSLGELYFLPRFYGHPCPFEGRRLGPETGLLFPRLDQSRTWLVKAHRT

T1 sequence (Q2YQ76 1-515 limits assumed): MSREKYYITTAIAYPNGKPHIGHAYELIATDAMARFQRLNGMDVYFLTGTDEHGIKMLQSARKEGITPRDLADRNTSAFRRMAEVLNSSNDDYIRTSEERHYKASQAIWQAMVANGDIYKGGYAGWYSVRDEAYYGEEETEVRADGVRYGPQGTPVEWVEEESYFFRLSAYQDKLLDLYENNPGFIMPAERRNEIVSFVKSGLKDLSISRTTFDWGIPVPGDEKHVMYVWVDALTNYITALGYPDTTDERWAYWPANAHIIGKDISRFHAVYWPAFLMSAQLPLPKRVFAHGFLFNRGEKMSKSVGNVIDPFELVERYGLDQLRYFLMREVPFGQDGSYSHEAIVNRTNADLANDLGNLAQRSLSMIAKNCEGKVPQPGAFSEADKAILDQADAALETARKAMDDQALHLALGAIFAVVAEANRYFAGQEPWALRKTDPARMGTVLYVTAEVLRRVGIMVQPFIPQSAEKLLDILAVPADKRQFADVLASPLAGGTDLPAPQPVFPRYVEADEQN

SMILES	pIC50 [1]	IC50 [2]
O=c1cc(NCCCNCc2cc(Cl)cc(Cl)c2)[nH]c2ccccc12 [compound 1312, 1312]	8.22	the IC50 values from human mitochondrial MetRS is very similar to that of BmMetRS
COc1cc(Cl)cc(CNCCCNC(=O)Nc2ccccc2)c1 [compound 1415, 1415]	5.78	The characteristics of each inhibitor experimentally measured against human mitochondria MetRS
O=C(NCCCNCc1cc(Cl)cc(Cl)c1)Nc1ccsc1 [compound 1433, 1433]	6.57	The characteristics of each inhibitor experimentally measured against human mitochondria MetRS
